Assays:
[1] = target: T1, purified human topoisomerase I (Homo sapiens, UniProt P11387); assay: Topoisomerase I-mediated single strand DNA break induction (in vitro); format: biochemical; settings: median effect concentration for inducing single-strand breaks in the DNA substrate; read-out: Topo I EC50
T1 construct: purchased Topogen
T1 sequence (P11387 1-765): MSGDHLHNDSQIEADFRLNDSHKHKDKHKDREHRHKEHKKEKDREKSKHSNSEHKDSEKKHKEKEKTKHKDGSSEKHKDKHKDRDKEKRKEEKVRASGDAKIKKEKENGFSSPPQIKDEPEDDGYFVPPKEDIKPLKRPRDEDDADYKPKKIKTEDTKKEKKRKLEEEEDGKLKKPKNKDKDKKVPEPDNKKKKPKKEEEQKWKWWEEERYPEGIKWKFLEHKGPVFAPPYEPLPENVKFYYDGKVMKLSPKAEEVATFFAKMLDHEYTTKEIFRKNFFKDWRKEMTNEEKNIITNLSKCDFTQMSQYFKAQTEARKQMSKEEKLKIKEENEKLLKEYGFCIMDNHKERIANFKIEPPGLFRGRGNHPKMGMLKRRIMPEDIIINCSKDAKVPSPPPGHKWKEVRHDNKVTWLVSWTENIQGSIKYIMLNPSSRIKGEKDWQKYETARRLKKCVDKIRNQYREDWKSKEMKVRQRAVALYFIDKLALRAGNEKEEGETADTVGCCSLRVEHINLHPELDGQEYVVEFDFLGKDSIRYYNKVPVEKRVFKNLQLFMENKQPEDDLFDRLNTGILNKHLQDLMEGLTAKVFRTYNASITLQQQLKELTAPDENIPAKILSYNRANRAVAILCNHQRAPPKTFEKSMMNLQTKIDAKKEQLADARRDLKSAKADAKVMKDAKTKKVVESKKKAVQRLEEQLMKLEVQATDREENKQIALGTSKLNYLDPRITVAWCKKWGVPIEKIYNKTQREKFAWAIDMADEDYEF
Experimental: Topoisomerase I activity was measured as described below. The procedure for assaying compound-induced, topoisomerase I-mediated single strand breaks in DNA was essentially that described by Hsiang, et al., (J. Biol. Chem. 1985, 260, 14873-14878). Samples dissolved in 100% DMSO as either […] or 10 mg/ml solutions, unless otherwise stated, were diluted in Tris-EDTA buffer. Marine bacteriophage PM2 DNA (Boehringer Mannheim) was also diluted in Tris-EDTA buffer to a concentration of 0.02 μg/μl. Different dilutions of the compound being evaluated were mixed with diluted DNA and this mixture was added to […] (one unit of enzyme activity is defined as the amount capable of relaxing 100 ng of supercoiled DNA in approximately 30 minutes at 37° C.) aliquots of purified human topoisomerase I (Topogen) in 2X reaction buffer to start the reaction. The compound-DNA-enzyme mixture was incubated for 30 minutes at 37° C. before stopping the reaction with warm stop buffer containing sodium dodecyl sulfate and proteinase K (Sigma). These mixtures were allowed to incubate at 37° C. for another 10 minutes, at which time the mixtures were removed from the waterbath and extracted with a 24:1 mixture of chloroform/isoamyl alcohol. Following centrifugation, aliquots of the aqueous phases were placed in wells of a 0.9% agarose (SeaKem) gel in Tris-borate buffer containing 0.5 μg/ml of ethidium bromide and subjected to electrophoresis for 15 hours to separate the different topological isomers and nicked and broken DNAs. After destaining the gel in water, the ethidium bromide stained DNA reaction products were visualized by exposing the gel to UV irradiation. Negatives of the photographs of the irradiated gels were scanned with a densitometer and areas under the peaks were calculated in order to obtain percent single strand DNA break formation for each sample. A median effective concentration (EC50) was obtained for each compound by interpolation between points of the resulting dose-effect curve which defines the potency of the compound for its effect in inducing topoisomerase I-mediated single strand breaks in DNA. The topoisomerase I activities for certain compounds of the present invention are shown below in Table I.

HT-29 colon carcinoma = assay: In vivo antitumor activity, HT-29 xenograft; set-up: species or system Balb/c athymic (nude) female mice
Experimental: Compounds: Examples of this invention were administered in an appropriate vehicle such as cremophor/ethanol/water (10%/10%/80%), in normal saline, water/carboxymethylcellulose vehicle.
All compounds were tested at several dose levels, with attempts each time to achieve their maximum tolerated dose (MTD). […] The optimal dose (OD) was the dose producing the best therapeutic effect, and was usually, but not always, synonymous with the MTD.
Tumors: Human tumors (HCT-116 and HT-29 colon carcinomas) were grown as xenografts in Balb/c athymic (nude) female mice. Antitumor assays. All tumors were implanted subcutaneously (sc) as 3-4mm fragments using a 13 gauge trochar. There were generally eight mice per treatment and control group. When treatment was delayed until tumors had obtained a certain size (weight), referred to as a staged tumor experiment (expt.), tumor-bearing mice were selected so that their tumors fell within a limited range of sizes for the particular expt.
Tumors were measured by calipers, and tumor weight calculated by the formula length (mm) times (×) width (mm)^2/2=tumor weight (mg). The median time (in days) to reach a predetermined tumor target size (for example, 500 mg) for untreated, control (C) mice relative to the time to reach the same target size for treated (T) mice, was calculated as a T-C value. T-C values were divided by the tumor volume doubling time (TVDT), and multiplied by 3.32, to yield a gross log cell kill (LCK) value, [i.e., (T-C)/TVDT×3.32=LCK].
A mouse was considered cured if there was no palpable tumor after a period of time equal to 10×TVDT post-reatment (Rx).

P388/CPT45 cells [2] = assay: Cytotoxicity in camptothecin-resistant P388/CPT45 cells relative to parental P388 (selectivity index R/S); format: cell-based, murine; settings: IC50 P388/CPT45 cells divided by IC50 parental P388 cells
Source text: The present invention includes fluoro sugar and other sugar derivatives of indolopyrrolocarbazoles of formula (I), as defined above. […] Most importantly, the instant invention describes topo I active compounds, related to compounds disclosed in WO 98/07433 and co-pending U.S. application, Ser. No. 08/914566 (both herein incorporated by reference), which display a surprising and unexpected selectivity index when evaluated for cytotoxicity in certain cell lines which express normal levels of topo I required for cell proliferation, compared with cell lines that are deficient in or underexpress topo I. Said “selectivity index” (R/S) was generated by dividing the cytotoxic IC50 of a particular compound against a camptothecin-resistant murine leukemia cell line, P388/CPT45, by the IC50 generated when using the parent P388 cell line. […] A level of selectivity was judged to be advantageous and beneficial in, for example, modulating potential undesirable side effects and/or toxicity. The compounds of the present invention were selected from compounds generically disclosed in WO 98/07433 and co-pending U.S. patent application, Ser. No. 08/914566, on the basis of an unexpected and unpredictable selectivity index (see Table I and II). […] Simple changes in the substitution of the sugar portion or the indolopyrrolocarbazole portion of the present invention will change the selectivity. This change in selectivity is not predictable by one skilled in the art.
(§1) Similarly, P338 murine leukemia cells were maintained in RPMI 1640 supplemented with 20% fetal bovine serum and 10 μM 2-mercaptoethanol. A camptothecin resistant subline, P388/CPT45, was selected for resistance to camptothecin and is over 1000-fold resistant to this compound (Woessner, et al. Oncol. Res. 1992, 4, 481-488).
(§2) In vitro cytotoxicity was assessed in tissue culture cells by MTS (3-(4,5-dimethylthiazol-2-yl)-5-(3-carboxymethoxyphenyl)-2-(4-sulphenyl)-2H-tetrazolium, inner salt) assay (Riss and Moravec, Mol. Biol. Cell 1992, 3 (Suppl.), 184a). Cells were plated at 8,000 cell/well in 96 well microtiter plates and 24 hours later serial dilutions of the test compounds were made and added to the cells. The cells were incubated at 37° C. for 72 hours, at which time the tetrazolium dye, MTS at 333 μg/ml (final concentration), in combination with the electron coupling agent phenazine methosulfate at 25 μM (final concentration) was added. A dehydrogenase enzyme in live cells reduces the MTS to a form that absorbs light at 492 nm which can be quantitated spectrophotometrically. The greater the absorbance the greater the number of live cells. The results are expressed as an IC50, which is the drug concentration required to inhibit cell proliferation (i.e., absorbance at 492 nm) to 50% of that of untreated control cells.
The selectivity index (R/S) is defined as the ratio obtained by dividing the IC50 value obtained using P388/CPT45 cells by that obtained using parental P388 cells. The R/S ratios used to determine the relative topo I selectivity of selected compounds of this invention are shown below in Table I.

[3] = test system: P388 murine leukemia cells; assay: In vitro cell-based cytotoxicity, parental P388 cells; settings: Mus musculus, 72 h, median cytotoxic concentration, 3 days continuous exposure
Experimental: The proliferation inhibition activity against the murine P388 cell line was measured as follows. Evaluation of a soluble tetrazolium/formazan assay for cell growth and drug sensitivity in culture, using human and other tumor cell lines, was done according to the procedure described in Cancer Res. 1988, 48, 4827-4833. Cells were plated at 4000 cells/well in 96 well microtiter plates and 24 h later drugs were added and serially diluted. The cells were incubated at 37° C. for 72 h, at which time a tetrazolium dye, XTT, containing phenazine methosulfate was added. A dehydrogenase enzyme in live cells reduced the XTT to a form that absorbs light at 450 nm, which could be quantitated spectrophotometrically. The greater the absorbance the greater the number of live cells. The results are expressed as an IC50, which is the drug concentration required to inhibit cell proliferation (i.e., absorbance at 450 nm) to 50% of that of untreated control cells.
as §1, §2
The cytotoxic activity for certain compounds of the present invention, in both parental P388 and the camptothecin-resistant P388/CPT45 cell lines are shown below in Table I.

P388/CPT45 cells [4] = settings: P388/CPT45 versus parental P388; cited from earlier work

Q: For `O=C1NC(=O)c2c1c1c3cc(F)c(F)cc3sc1c1c2c2cc(F)c(F)cc2n1[C@@H]1O[C@H](CO)C(F)(F)[C@H](O)[C@H]1O` [Example 30, 12-[4,4-Difluoro-4-deoxy-β-D-glucopyranosyl]-2,3,9,10-tetrafluoro-5H, 13H-benzo[b]thienyl[2,3-a]pyrrolo[3,4c]carbazole-5,7(6H)-dione], which EC50 [1] is on record?
A: 0.01 µM

Q: And the “LCK (gross log cell kill)” value (HT-29 colon carcinoma; HT29 sc xenograft in nude mice, at optimal or maximum tolerated dose, CPT-11 run as comparator in same experiment)?
A: >1.4

Q: And the “MTD (optimal or maximum tolerated dose level tested)” value (HT-29 colon carcinoma; HT29 xenograft experiment, nude mice)?
A: 16 mpkpi

Q: And the “Selectivity Index R/S” value (P388/CPT45 cells [2])?
A: 575.5

Q: For `NC[C@H]1O[C@@H](n2c3ccc(F)cc3c3c4c(c5c6ccccc6sc5c32)C(=O)NC4=O)[C@H](O)[C@@H](O)[C@@H]1O` [Example 36], which EC50 [1] is on record?
A: 0.18 µM

Q: And the “Selectivity Index R/S” value (P388/CPT45 cells [2])?
A: <1.1

Q: What about the IC50 [3] of the same compound?
A: 8.99 µM

Q: Which EC50 [1] does the source give for `O=C1NC(=O)c2c1c1c3ccc(F)cc3[nH]c1c1c2c2ccc(F)cc2n1[C@@H]1O[C@H](CO)[C@@H](O)[C@H](O)[C@H]1O` [Example 37] here?
A: 0.24 µM

Q: And the “Selectivity Index R/S” value (P388/CPT45 cells [2])?
A: 8.7

Q: What about the IC50 [3] of the same compound?
A: 0.26 µM

Q: With `O=C1NC(=O)c2c1c1c3cc(F)ccc3[nH]c1c1c2c2cc(F)ccc2n1[C@H]1O[C@H](CF)[C@@H](O)[C@H](O)[C@H]1O` [Example 39] as the compound, how does the EC50 [1] read?
A: 0.1 µM

Q: What about the “Selectivity Index R/S” value (P388/CPT45 cells [2]) of the same compound?
A: 5.0

Q: And the IC50 [3]?
A: 0.235 µM

Q: What does the source list for `NC[C@@H]1C[C@H](O)[C@@H](O)[C@H](n2c3ccc(F)cc3c3c4c(c5c6cc(F)ccc6[nH]c5c32)C(=O)NC4=O)O1` [Example 41]?
A: EC50 [1]: 0.02 µM; Selectivity Index R/S (P388/CPT45 cells [2]): 27.3; IC50 [3]: 0.072 µM

Q: Which “fold resistance of P388/CPT45 subline” value (P388/CPT45 cells [4]) does the source give for `CC[C@@]1(O)C(=O)OCc2c1cc1n(c2=O)Cc2cc3ccccc3nc2-1` [camptothecin] here?
A: over 1000 fold
